Laboratory results: patent US20080311039A1, “Therapeutic and Prognostic Factor Yy1 in Human Cancer” (The Regents of the University of California, priority 2004, published 2008)
Where a name gives a salt, the structure may show the parent alone. Blank lines part the entries; values can stand above or below the molecule they belong to.

Legend:
[1] = test system: YY1; assay: YY1 expression in PC-3 cells
[2] = test system: YY1; assay: YY1 activity by luciferase reporter assay in PC-3
[3] = test system: DR5 promoter; assay: DR5 luciferase reporter system (pDR5 wild type) in PC3 cells; format: cell-based, human; settings: PC3 transfected with pDR5, drug treatment vs basal
Text: Another reporter gene system of use in the present invention utilized firefly luciferase luminescence as the reporter signal. In this reporter system, a wild-type DR5 promoter is operably linked to a luciferase reporter sequence. The wild-type DR5YY1 responsive site can be used in parallel with a DR5 promoter having a non-functional YY1 responsive site, for example, a 5′-deletion mutant-605 that includes the YY1 binding site (pDR5/-605) (described in Yoshida, et al, (2001) FEBS Letters, 507:381-385), or a DR5 promoter sequence missing the YY1 binding sequence (pDR5-YY1 mutant) (see, Huerta-Yepez, et al., AACR Abstract, 2005).
However, many drug-resistant tumor cells are also resistant to TRAIL and such tumors require sensitization to reverse TRAIL resistance. […] This hypothesis was tested by examining a luciferase reporter system (pDR5 wild type) and plasmids in which the YY1-binding site was either deleted (pDR5/-605) and/or mutated (pDR5-YY1 mutant).

[4] = test system: DR5; assay: DR5 expression in PC-3 cells by flow, RT-PCR and western; format: cell-based, human
[5] = test system: NF-κB; assay: NF-κB DNA-binding activity in PC-3 cells; format: cell-based, human
[6] = test system: PC-3 cells; assay: Sensitization to TRAIL-induced apoptosis, prostate carcinoma cells; format: cell-based, human; settings: 500 μM, 1000 μM, 18 h
Experimental: (§1) Yin-Yang 1 (YY1) is a transcription factor that may activate or repress gene expression. […] In this study, we examined the direct S-nitrosylation of YY1 using the human prostate cancer cell line, PC-3, as model. Culture cells were incubated for 18 h in the presence of various concentrations of the NO donor DETANONOate (500 μM, 1000 μM) that sensitized PC-3 to Fas ligand- and TRAIL-mediated apoptosis. Subsequently, we analyzed for S-nitrosylation of YY1 by various methods. […] Noteworthy, significant constitutive S-nitrosylated proteins were detected. Further, using double immunofluorescence staining microscopy, we co-localized the presence of S-nitrosylated proteins and YY1.

[7] = test system: PC-3 cells; assay: Sensitization to Fas ligand-mediated apoptosis, PC-3; format: cell-based, human; settings: 500 μM, 1000 μM, 18 h
Experimental: as §1

[8] = test system: Fas; assay: Fas expression in B-NHL cell lines (flow cytometry, RT-PCR, Western); format: cell-based
Text: (§2) We have recently reported that treatment of B-Non-Hodgkin's Lymphoma (NHL) cell lines with rituximab (anti-CD20 antibody) sensitizes the tumor cells to both chemotherapy and Fas-induced apoptosis (Jazirehi and Bonavida, 2005, Oncogene, 24:2121-2145). This study investigated the underlying molecular mechanism of rituximab-mediated reversal of resistance. Treatment of B-NHL cell lines inhibited the constitutively activated NF-κB. Cells expressing dominant active IκB or treated with NF-κB specific inhibitors were sensitized to both drugs and FasL agonist mAb (CH-11)-induced apoptosis. Downregulation of Bcl-xL expression via inhibition of NF-κB activity correlated with chemosensitivity. […] The role of Bcl-xL expression in the regulation of Fas resistance was not apparent as Ramos HA-Bcl cells were as sensitive as the wild type cells to CH-11-induced apoptosis. […] These findings show two complementary mechanisms underlying the chemo-sensitization and immuno-sensitization of B NHL cells by rituximab via inhibition of NF-κB. The regulation of chemoresistance by NF-B is mediated via Bcl-xL expression whereas the regulation of Fas resistance by NF-B is mediated via YY1 expression and activity.
(§3) We have reported that rituximab triggers and inhibits anti-apoptotic gene products in NHL B-cell lines resulting in sensitization to drug-induced apoptosis (Alas et al., Clin. Cancer Res. 8:836, 2001; Jazirehi et al., Mol. Cancer. Therapy 2:1183, 2003; Vega et al., Oncogene 23:3530, 2004). This study investigated whether rituximab also modifies intracellular signaling pathways resulting in the sensitization of NHL cells to Fas-induced apoptosis. […] Downregulation of YY1 expression was the result of rituximab-induced inhibition of both the p38MAPK signaling pathway and constitutive NF-κB activity. The dual roles of NF-κB and YY1 in the regulation of Fas expression were corroborated by the use of a dominant-active inhibitor of NF-κB (Ramos IκB-ER mutant) and YY1 siRNA, respectively. […]

[9] = test system: B-NHL cell lines; assay: Sensitization to CH-11 (FasL agonist mAb)-induced apoptosis in B-NHL cell lines; format: cell-based
Text: as §2, §3

[10] = test system: PC-3 cells; settings: TRAIL-resistant human prostate carcinoma (CaP) cell lines; Huerta-Yepez et al. 2004; cited from earlier work
[11] = target: T1, YY1 (Homo sapiens, UniProt P25490); assay: YY1 DNA-binding activity in PC-3 cells; format: cell-based; design: endogenous in cells; host or cells: PC-3
T1 sequence (P25490 whole entry): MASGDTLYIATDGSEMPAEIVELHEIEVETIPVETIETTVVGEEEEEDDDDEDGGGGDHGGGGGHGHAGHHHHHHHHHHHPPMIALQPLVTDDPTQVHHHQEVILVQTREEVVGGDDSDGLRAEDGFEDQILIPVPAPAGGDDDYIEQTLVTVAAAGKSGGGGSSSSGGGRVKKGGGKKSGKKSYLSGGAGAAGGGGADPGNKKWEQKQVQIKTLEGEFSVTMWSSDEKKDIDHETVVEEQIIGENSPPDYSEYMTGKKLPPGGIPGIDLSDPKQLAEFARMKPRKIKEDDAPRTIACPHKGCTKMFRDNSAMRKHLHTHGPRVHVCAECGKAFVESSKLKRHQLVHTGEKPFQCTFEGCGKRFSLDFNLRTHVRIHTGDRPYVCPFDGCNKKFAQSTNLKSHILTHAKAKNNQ

[12] = target: T1, YY1; assay: YY1 activity in B-NHL cell lines; format: cell-based; design: endogenous in cells; host or cells: 2F7, Ramos, Raji; rituximab-resistant Ramos RR1
Text: as §2, §3

[13] = test system: PC-3 cells; assay: General S-nitrosylation of proteins in PC-3 by immunohistochemistry; format: cell-based, human; settings: PC-3, after treatment with NO
Experimental: as §1

[14] = test system: YY1; assay: YY1 expression in rituximab-resistant Ramos RR1 cells; format: cell-based; settings: alone or in combination with NF-κB inhibitors
Experimental: Ramos and Ramos RR1 cells were treated with vincristine, VP-16, CDDP, and ADR, and the NF-κB inhibitors Bortezomib and DHMEQ.

[15] = test system: YY1; assay: YY1 expression in NHL B-cell lines; format: cell-based; settings: NHL B cell lines (Example 9)
Text: (§4) We have reported that rituximab triggers and inhibits anti-apoptotic gene products in NHL B-cell lines resulting in sensitization to drug-induced apoptosis (Alas et al., Clin. Cancer Res. 8:836, 2001; Jazirehi et al., Mol. Cancer. Therapy 2:1183, 2003; Vega et al., Oncogene 23:3530, 2004). This study investigated whether rituximab also modifies intracellular signaling pathways resulting in the sensitization of NHL cells to Fas-induced apoptosis. […] Downregulation of YY1 expression was the result of rituximab-induced inhibition of both the p38MAPK signaling pathway and constitutive NF-κB activity. The dual roles of NF-κB and YY1 in the regulation of Fas expression were corroborated by the use of a dominant-active inhibitor of NF-κB (Ramos IκB-ER mutant) and YY1 siRNA, respectively. The role of rituximab-mediated inhibition of the p38MAPK/NF-κB/YY1 pathways, which result in both Fas upregulation and sensitization to CH11-induced apoptosis, was corroborated by the use of specific chemical inhibitors directed at various targets of these pathways. […] Altogether, these findings provide a novel mechanism of rituximab-mediated signaling by inhibiting the p38MAPK/NF-κB/YY1 pathways and resulting in the sensitization of B NHL to Fas-induced apoptosis. […]

[16] = test system: Ramos cells; assay: Chemosensitization to drug-induced apoptosis in Ramos B-NHL cells and variants; format: cell-based
Text: as §2

[17] = test system: p38MAPK signaling pathway; assay: p38MAPK signaling pathway in NHL cell lines; format: cell-based; settings: NHL B cell lines
Text: as §4

[18] = test system: NF-κB; assay: Constitutive NF-κB activity in NHL cell lines; format: cell-based; settings: NHL B cell lines
Text: as §4

[19] = test system: B-NHL cell lines; settings: Jazirehi and Bonavida 2005; cited from earlier work
[20] = test system: Ramos cells; settings: B-NHL cell lines; Jazirehi and Bonavida 2005; cited from earlier work

YY1 activity (luciferase reporter assay) [2]: marked reduction
Molecule: COc1cc2c(cc1O)CC[C@@H]1[C@@H]2CC[C@]2(C)[C@@H](O)CC[C@@H]12 [2-methoxyestradiol, 2-Methoxyestradiol]
YY1 expression [1]: marked reduction

Molecule: COc1cccc2c1C(=O)c1c(O)c3c(c(O)c1C2=O)C[C@@](O)(C(=O)CO)C[C@@H]3O[C@H]1C[C@H](N)[C@H](O)[C@H](C)O1 [ADR, doxorubicin hydrochloride]
luciferase activity [3]: significantly augmented luciferase activity

Molecule: [NH2][Pt]([NH2])([Cl])[Cl] [CDDP, cisplatin]
luciferase activity [3]: significantly augmented luciferase activity

YY1 DNA-binding activity [11]: inhibited | YY1 activity ([12]; B-NHL cell lines (Example 6)): Inhibition of YY1 activity
Molecule: NCCN(CCN)/[N+]([O-])=N/O [DETANONOate, 3,3-bis(aminoethyl)-1-hydroxy-2-oxo-*1-triazene]
DR5 expression [4]: significant upregulation of DR5 expression | NF-κB DNA-binding activity [5]: inhibited | sensitization to TRAIL-mediated apoptosis [6]: sensitized | sensitization to Fas ligand-mediated apoptosis [7]: sensitized | Fas expression ([8]; B-NHL cell lines (Example 6)): upregulation of Fas expression | sensitization to CH-11-induced apoptosis ([9]; B-NHL cell lines (Example 6)): sensitization to CH-11-induced apoptosis | sensitization of TRAIL-resistant CaP cell lines [10]: can be sensitized | YY1 expression [1]: inhibited YY1 expression

Molecule: [N]=O [NO, nitric oxide]
general S-nitrosylation of proteins [13]: increased

Molecule: CC[C@]1(O)C[C@H]2CN(CCc3c([nH]c4ccccc34)[C@@](C(=O)OC)(c3cc4c(cc3OC)N(C=O)[C@H]3[C@@](O)(C(=O)OC)[C@H](OC(C)=O)[C@]5(CC)C=CCN6CC[C@]43[C@@H]65)C2)C1 [vincristine]
YY1 expression [14]: significantly abrogated or diminished YY1 expression

YY1 activity ([12]; B-NHL cell lines (Example 6)): Inhibition of YY1 activity | YY1 activity ([12]; NHL B cell lines (Example 9)): inhibited
Molecule: rituximab: anti-CD20 antibody
Fas expression ([8]; B-NHL cell lines (Example 6)): upregulation of Fas expression | Fas expression ([8]; NHL cell lines, as early as 6 h post treatment, flow cytometry, RT-PCR, Western): up-regulated | sensitization to CH-11-induced apoptosis ([9]; 2F7, Ramos and Raji, 20 μg/ml): sensitized the cells to CH-11 (FasL agonist mAb)-induced apoptosis and synergy was achieved | sensitization to CH-11-induced apoptosis ([9]; B-NHL cell lines (Example 6)): sensitization to CH-11-induced apoptosis | YY1 expression [15]: inhibited | sensitization to drug-induced apoptosis ([16]; Bcl-xL overexpressing Ramos HA-BclxL cells): not sensitized | chemosensitization ([16]; rituximab-resistant Ramos RR1 cells): cannot be chemosensitized | p38MAPK signaling pathway [17]: inhibition | constitutive NF-κB activity [18]: inhibition | sensitization to Fas-induced apoptosis [19]: sensitizes | sensitization to chemotherapy [20]: sensitizes
